Test results: ChEMBL document CHEMBL1165874, “Carbonic anhydrase inhibitors: synthesis and inhibition of the human cytosolic isozymes I and II and transmembrane isozymes IX, XII (cancer-associated) and XIV with 4-substituted 3-pyridinesulfonamides” (Eur J Med Chem, 2010)
pKi: −log10 of the molar value.

Columns and labels:
[1] = molecular target: Carbonic anhydrase 9 (Homo sapiens, UniProt Q16790)
[2] = molecular target: Carbonic anhydrase 14 (Homo sapiens, UniProt Q9ULX7)
Carbonic anhydrase 14, sequence (Q9ULX7 whole entry): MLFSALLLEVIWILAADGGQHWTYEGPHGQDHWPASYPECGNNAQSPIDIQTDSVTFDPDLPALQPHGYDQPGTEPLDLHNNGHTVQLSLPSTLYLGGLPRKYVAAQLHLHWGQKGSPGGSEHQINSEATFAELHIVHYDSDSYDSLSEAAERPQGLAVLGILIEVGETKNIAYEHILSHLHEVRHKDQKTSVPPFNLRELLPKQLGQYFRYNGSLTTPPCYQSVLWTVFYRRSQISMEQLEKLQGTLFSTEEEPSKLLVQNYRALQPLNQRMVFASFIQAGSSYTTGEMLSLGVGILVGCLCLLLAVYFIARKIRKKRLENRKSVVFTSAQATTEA

SMILES | pKi [1] | pKi [2]
CC1CC=NN1c1ccncc1S(N)(=O)=O (configuration not stated) | 8.11 | –
NS(=O)(=O)c1cnccc1Oc1ccc(F)cc1 | 8.10 | –
NS(=O)(=O)c1cnccc1Sc1nc2ccc([N+](=O)[O-])cc2s1 | 8.02 | –
C#CCSc1ccncc1S(N)(=O)=O | 8.20 | –
N#Cc1ccc(Oc2ccncc2S(N)(=O)=O)cc1 | 8.14 | –
NS(=O)(=O)c1cnccc1Sc1nnns1 | 8.11 | –
NS(=O)(=O)c1ccc(S(=O)(=O)Nc2cccc3c(Cl)c[nH]c23)cc1 | – | 6.98
